The IC50 is the concentration that gives 50% inhibition. High values mean a need for much substance, low ones inhibition by little substance.

IC50 data for two compounds are collected here from ChEMBL document CHEMBL1151983, “Antiprotealide is a natural product” (J Nat Prod, 2009).

Where “and” joins values, the source holds several entries; their conditions need not be identical. Identical values can stand only once.

Assay [1] is described as follows: Inhibition of chymotrypsin-like activity of rabbit 20S proteasome. On the set-up: species or system Oryctolagus cuniculus.
Assay [2] is described as follows: Inhibition of trypsin-like activity of rabbit 20S proteasome. On the set-up: species or system Oryctolagus cuniculus.
Assay [3] in a line: Inhibition of caspase-like activity of rabbit 20S proteasome. On the set-up: species or system Oryctolagus cuniculus.
A further assay relates to RPMI-8226. As to the kind of experiment: Cytotoxicity against human RPMI8226 cells after 48 hrs by resazurin assay. The class given is functional, cell-based.

Regarding `CC(C)[C@H](O)[C@@]12NC(=O)[C@H](CCCl)[C@]1(C)OC2=O` [ANTIPROTEALIDE], the IC50 is 27 nM and 31 nM in assay [1]; 211 nM and 262 nM in assay [2]; over 20000 nM in assay [3]; 220 nM in the assay on RPMI-8226 (Homo sapiens, RPMI-8226, 48 h); 283 nM in the assay with RPMI-8226 (rpmi-8226).
Regarding `C[C@@]12OC(=O)[C@]1([C@@H](O)[C@@H]1C=CCCC1)NC(=O)[C@@H]2CCCl` [MARIZOMIB], the half-maximal inhibitory concentration (IC50) in assay [1] worked out at 4 nM; in assay [2] it was 34 nM; in assay [3], 364 nM; with RPMI-8226 (Homo sapiens, RPMI-8226, 48 h) it was 11 nM.
